From US4352803A, “Novel naphthyridine derivatives, intermediates thereof, processes for preparation thereof, and use thereof” (Dainippon Pharmaceutical Co., Ltd., priority 1978, dated 1982)
In brackets after ≈: the same amount, converted by molar mass.

Tests used:
Shigella flexneri 2a = experiment: In vitro antibacterial activity (MIC), Shigella flexneri 2a; format: cell-based; settings: read-out: minimum inhibitory concentration (MIC)
Description: (§1) (MIC) (μg/ml) Method; Chemotherapy, 22(6), 1126 (1974)

[1] = system: Staphylococcus aureus 209P JC-1; experiment: In vitro antibacterial activity (MIC), Staphylococcus aureus 209P JC-1; format: cell-based; settings: Staphylococcus aureus 209P JC-1; read-out: minimum inhibitory concentration (MIC)
Description: as §1

[2] = system: Pseudomonas aeruginosa No. 12; experiment: in vivo efficacy on the ascending kidney infection in mice; design: species or system mice (ddY-S); settings: 120 h; ascending kidney infection with Pseudomonas aeruginosa No. 12; po; mice
Procedure: Female mice (ddY-S) weighing 22 to 30 g were anesthetized by intravenous injection of sodium pentobarbital at a dose of 50 mg/kg. Through a small suprapubic incision, the urinary bladder was exposed and then infected by injecting 0.1 ml of a 1:10,000 dilution of Pseudomonas aeruginosa No. 12 cultured for 20 hours in trypto-soy broth, using 0.25 ml syringe with 0.25 mm needle. The mice were restrained from drinking water for a period from 1 day before to 1 day after the infection and treated twice a day for 3 days starting on the day of infection. On the 5th day after infection, the kidneys were harvested for the detection of the bacteria, transversely bisected and stamped on King A Agar, which were incubated at 37° C. overnight. No bacterial finding in the kidneys was regarded as protected from the ascending kindey infection. ED50 values were calculated by probit analysis.

[3] = system: Pseudomonas aeruginosa Tsuchijima; experiment: In vitro antibacterial activity (MIC), Pseudomonas aeruginosa Tsuchijima; format: cell-based; settings: Pseudomonas aeruginosa Tsuchijima; read-out: minimum inhibitory concentration (MIC)
Description: as §1

[4] = system: Streptococcus faecalis P-2473; experiment: In vitro antibacterial activity (MIC), Streptococcus faecalis P-2473; format: cell-based; settings: Enterococcus faecalis, P2473; Streptococcus faecalis P-2473; read-out: minimum inhibitory concentration (MIC)
Description: as §1

[5] = system: Pseudomonas aeruginosa No. 12; experiment: In vitro antibacterial activity (MIC), Pseudomonas aeruginosa No. 12; format: cell-based; settings: Pseudomonas aeruginosa No. 12; read-out: minimum inhibitory concentration (MIC)
Description: as §1

[6] = system: Corynebacterium pyogenes C-21; experiment: In vitro antibacterial activity (MIC), Corynebacterium pyogenes C-21; format: cell-based; settings: Rhodococcus (subgen. Prescottella) equi, C21; Corynebacterium pyogenes C-21; read-out: minimum inhibitory concentration (MIC)
Description: as §1

Proteus mirabilis P-2381 = experiment: In vitro antibacterial activity (MIC), Proteus mirabilis P-2381; format: cell-based; settings: P2381; Proteus mirabilis P-2381; read-out: minimum inhibitory concentration (MIC)
Description: as §1

[7] = system: Escherichia coli NIHJ JC-2; experiment: In vitro antibacterial activity (MIC), Escherichia coli NIHJ JC-2; format: cell-based; settings: NIHJJC2; Escherichia coli NIHJ JC-2; read-out: minimum inhibitory concentration (MIC)
Description: as §1

in vivo = settings: mouse, in vivo, po
Procedure: The number of dead mice was counted after 7 days, and the value of median lethal dose (LD50, mg/kg) was calculated in accordance with the Behrens-Kaerber method.

[8] = system: Serratia marcescens IFC 3736; experiment: In vitro antibacterial activity (MIC), Serratia marcescens IFC 3736; format: cell-based; settings: IFC3736; Serratia marcescens IFC 3736; read-out: minimum inhibitory concentration (MIC)
Description: as §1

Proteus morganii Kono = experiment: In vitro antibacterial activity (MIC), Proteus morganii Kono; format: cell-based; settings: Morganella morganii; Proteus morganii Kono; read-out: minimum inhibitory concentration (MIC)
Description: as §1

[9] = system: Staphylococcus aureus No. 50774; experiment: In vitro antibacterial activity (MIC), Staphylococcus aureus No. 50774; format: cell-based; settings: Staphylococcus aureus No. 50774; read-out: minimum inhibitory concentration (MIC)
Description: as §1

Escherichia coli P-140a = experiment: In vitro antibacterial activity (MIC), Escherichia coli P-140a; format: cell-based; settings: P140A; Escherichia coli P-140a; read-out: minimum inhibitory concentration (MIC)
Description: as §1

Escherichia coli P-5101 [10] = experiment: In vitro antibacterial activity (MIC), Escherichia coli P-5101; format: cell-based; settings: P5101; Escherichia coli P-5101; read-out: minimum inhibitory concentration (MIC)
Description: as §1

Plasma level in dogs = format: in vivo, Beagle dogs; settings: dog, plasma
Procedure: Two male Beagle dogs weighing 12 kg each were orally given a capsule containing one of compounds 1 and 2 at a dose of 25 mg/kg with 200 ml of milk respectively. Blood samples were taken by venipuncture from the two dogs at each 0.5, 1, 2, 3, 6, 8 and 10 hours after administration, and centrifuged individually to separate the plasma.
Drug levels were determined by the thin-layer cup-plate method using Escherichia coli Kp as an indicator organism.

Escherichia coli P-5101 [11] = experiment: in vivo efficacy against systemic infection in mice, Escherichia coli P-5101; settings: P5101, in Mus musculus, po, 168 h
Procedure: Male mice (ddY) weighing about 20 g
Intraperitoneal infection with (about
9 × 10^6 cells/mouse) of a bacterial
(§2) suspension in trypto-soy broth with 4% mucin.
(§3) Twice, about 5 minutes and 6 hours after infection.

[12] = system: Streptococcus pyogenes 65A; experiment: In vitro antibacterial activity (MIC), Streptococcus pyogenes 65A; format: cell-based; settings: Streptococcus pyogenes 65A; read-out: minimum inhibitory concentration (MIC)
Description: as §1

[13] = system: Salmonella enteritidis No. 1891; experiment: In vitro antibacterial activity (MIC), Salmonella enteritidis No. 1891; format: cell-based; settings: Salmonella enterica; Salmonella enteritidis No. 1891; read-out: minimum inhibitory concentration (MIC)
Description: as §1

[14] = system: Klebsiella pneumoniae No. 13; experiment: In vitro antibacterial activity (MIC), Klebsiella pneumoniae No. 13; format: cell-based; settings: Klebsiella pneumoniae No. 13; read-out: minimum inhibitory concentration (MIC)
Description: as §1

[15] = system: Enterobacter cloacae P-2540; experiment: In vitro antibacterial activity (MIC), Enterobacter cloacae P-2540; format: cell-based; settings: P2540; Enterobacter cloacae P-2540; read-out: minimum inhibitory concentration (MIC)
Description: as §1

[16] = Urinary excretion in dogs; format: in vivo, Beagle dogs; settings: dog, urine, po, 25 mg/kg, urine pooled over 24 hours, oral 25 mg/kg
[17] = system: Salmonella typhimurium 8-9; experiment: In vitro antibacterial activity (MIC), Salmonella typhimurium 8-9; format: cell-based; settings: Salmonella enterica; Salmonella typhimurium 8-9; read-out: minimum inhibitory concentration (MIC)
Description: as §1

[18] = system: Pseudomonas aeruginosa No. 12; experiment: in vivo efficacy against systemic infection in mice, Pseudomonas aeruginosa No. 12; settings: NO.12, in Mus musculus, po, 168 h
Procedure: Male mice (ddY) weighing about 20 g
(3) Pseudomonas aeruginosa No. 12;
(about 5 × 10^3 cells/mouse) of a bacterial
as §2, §3
The numerals in the table show ED50 (mg/kg). ED50 values were

[19] = system: Staphylococcus aureus No. 50774; experiment: in vivo efficacy against systemic infection in mice, Staphylococcus aureus No. 50774; settings: NO.50774, in Mus musculus, po, 336 h
Procedure: Male mice (ddY) weighing about 20 g
Intravenous infection with (about
5 × 10^8 cells/mouse) of a bacterial
as §3

[20] = system: Shigella flexneri 4a P-330; experiment: In vitro antibacterial activity (MIC), Shigella flexneri 4a P-330; format: cell-based; settings: 4AP330, read-out: minimum inhibitory concentration (MIC)
Description: as §1

For `CCn1cc(C(=O)O)c(=O)c2cc(F)c(N3CCNCC3)nc21` [Compound 1], the MIC (Shigella flexneri 2a) was 0.2 µg/mL (≈ 0.624 µM), the MIC [1] was 0.78 µg/mL (≈ 2.44 µM) and the ED50 [2] was 2.4 mg/kg. The MIC [3] was 0.39 µg/mL (≈ 1.22 µM), the MIC [4] was 12.5 µg/mL (≈ 39 µM) and the MIC [5] was 0.78 µg/mL (≈ 2.44 µM). It also gave an MIC [6] of 1.56 µg/mL (≈ 4.87 µM), an MIC (Proteus mirabilis P-2381) of 0.39 µg/mL (≈ 1.22 µM) and an MIC [7] of 0.2 µg/mL (≈ 0.624 µM). For the same compound, the LD50 at 168 h (in vivo) was > 4000 mg/kg, the MIC [8] was 0.39 µg/mL (≈ 1.22 µM) and the MIC (Proteus morganii Kono) was 0.2 µg/mL (≈ 0.624 µM). The MIC [9] was 0.78 µg/mL (≈ 2.44 µM), the MIC (Escherichia coli P-140a) was 0.2 µg/mL (≈ 0.624 µM) and the MIC (Escherichia coli P-5101 [10]) was 0.1 µg/mL (≈ 0.312 µM). For the same compound, the concentration at 0.5 h (Plasma level in dogs; 0.5 hr after oral 25 mg/kg, nd: nondetective) was 600 ng/mL, the concentration at 1 h (Plasma level in dogs; 1 hr after oral 25 mg/kg, nd: nondetective) was 2400 ng/mL and the concentration at 2 h (Plasma level in dogs; 2 hr after oral 25 mg/kg) was 5500 ng/mL. For the same compound, the concentration at 3 h (Plasma level in dogs; 3 hr after oral 25 mg/kg) was 5900 ng/mL, the concentration at 6 h (Plasma level in dogs; 6 hr after oral 25 mg/kg) was 4200 ng/mL and the concentration at 8 h (Plasma level in dogs; 8 hr after oral 25 mg/kg) was 3700 ng/mL. For the same compound, the concentration at 10 h (Plasma level in dogs; 10 hr after oral 25 mg/kg) was 2400 ng/mL, the ED50 (Escherichia coli P-5101 [11]) was 1.8 mg/kg and the MIC [12] was 12.5 µg/mL (≈ 39 µM). For the same compound, the MIC [13] was 0.1 µg/mL (≈ 0.312 µM), the MIC [14] was 0.2 µg/mL (≈ 0.624 µM) and the MIC [15] was 0.2 µg/mL (≈ 0.624 µM). The concentration at 24 h [16] was 606000 ng/mL, the dose excreted at 24 h ([16]; read-out: urinary recovery) was 40.7% and the MIC [17] was 0.1 µg/mL (≈ 0.312 µM). For the same compound, the ED50 [18] was 9 mg/kg, the ED50 [19] was 10 mg/kg and the MIC [20] was 0.39 µg/mL (≈ 1.22 µM).
